Data as given in patent US20140357487A1, “PLANTS HAVING INCREASED TOLERANCE TO HERBICIDES” (BASF SE, priority 2011, published 2014).

Key:
Hordeum HPPD (SEQ ID: 2) = biological target: T1, Hordeum HPPD (SEQ ID: 2) (Hordeum vulgare, UniProt O48604, A164G/R146V/R147D/R148G); experiment: HPPD activity assay, Hordeum wild-type HPPD; format: biochemical; conditions: for tolerance index TI: not normalized
T1 construct: His (N); made in house; host or cells: E. coli BL21 (DE3)
Protocol: (§1) HPPD produces homogentisic acid and CO2 from 4-hydroxyphenylpyruvate (4-HPP) and O2. The activity assay for HPPD is based on the analysis of homogentisic acid by reversed phase HPLC.
(§2) The assay mixture can contain 150 mM potassium phosphate buffer pH 7.0, 50 mM L-ascorbic acid, 1 μM FeSO4 and 7 μg of purified enzyme in a total volume of 1 ml.
(§3) Inhibitors are dissolved in DMSO (dimethylsulfoxide) to a concentration of 20 mM or 0.5 mM, respectively. From this stock solution serial five-fold dilutions are prepared in DMSO, which are used in the assay. The respective inhibitor solution accounts for 1% of the assay volume. […] After a preincubation of 30 min the reaction is started by adding 4-HPP to a final concentration of 0.1 mM. The reaction is allowed to proceed for 120 min at room temperature. The reaction is stopped by addition of 100 μl of 4.5 M phosphoric acid.
(§4) Activities are normalized by setting the uninhibited enzyme activity to 100%. IC50 values are calculated using non-linear regression.
(§5) The assay mixture can contain 150 mM potassium phosphate buffer pH 7.0, 50 mM L-ascorbic acid, 100 μM Catalase (Sigma-Aldrich), 1 μM FeSO4 and 0.2 units of purified HPPD enzyme in a total volume of 505 μl. 1 unit is defined as the amount of enzyme that is required to produce 1 nmol of HGA per minute at 20° C.
(§6) Inhibitors are dissolved in DMSO (dimethylsulfoxide) to a concentration of 0.5 mM. From this stock solution serial five-fold dilutions are prepared in DMSO, which are used in the assay. The respective inhibitor solution accounts for 1% of the assay volume. […] Activities are normalized by setting the uninhibited enzyme activity to 100%. IC50 values are calculated using non-linear regression.
(§7) Using methods which are described in the above examples or well known in the art, purified, recombinant wildtype HPPD enzymes are characterized with respect to their kinetic properties and sensitivity towards HPPD inhibiting herbicides. Apparent michaelis constants (Km) and maximal reaction velocities (Vmax) are calculated by non-linear regression with the software GraphPad Prism 5 (GraphPad Software, La Jolla, USA) using a substrate inhibition model.
(§8) Field performance of the HPPD enzyme, which is used as a herbicide tolerance trait, may depend not only on its lack of sensitivity towards HPPD inhibiting herbicides but also on its activity. To assess the potential performance of a herbicide tolerance trait a tolerance index (TI) is calculated using the following formula: […]

Avena HPPD = experiment: HPPD activity assay, Avena HPPD; format: biochemical, Avena sativa; conditions: normalized on Arabidopsis wild-type HPPD
Protocol: as §1, §2
(§9) Inhibitors are dissolved in DMSO (dimethylsulfoxide) to a concentration of 20 mM or 0.5 mM, respectively. From this stock solution serial five-fold dilutions are prepared in DMSO, which are used in the assay. The respective inhibitor solution accounts for 1% of the assay volume. Thus, final inhibitor concentrations range from 200 μM to 2.5 nM or from 5 μM to 63 pM, respectively. After a preincubation of 30 min the reaction is started by adding 4-HPP to a final concentration of 0.1 mM. The reaction is allowed to proceed for 120 min at room temperature. The reaction is stopped by addition of 100 μl of 4.5 M phosphoric acid.
as §4, §5
(§10) Inhibitors are dissolved in DMSO (dimethylsulfoxide) to a concentration of 0.5 mM. From this stock solution serial five-fold dilutions are prepared in DMSO, which are used in the assay. The respective inhibitor solution accounts for 1% of the assay volume. Thus, final inhibitor concentrations range from 5 μM to 320 pM, respectively. Activities are normalized by setting the uninhibited enzyme activity to 100%. IC50 values are calculated using non-linear regression.
as §7, with “model. […] Weighted means (by standard error) of Km and […] values are calculated from at least three independent experiments. […]” for “model.”
as §8

Lolium HPPD = experiment: HPPD activity assay, Lolium HPPD; format: biochemical; conditions: normalized on Arabidopsis wild-type HPPD
Protocol: as §1, §2, §9, §4, §5, §10
as §7, with “model. […] Weighted means (by standard error) of Km and […] values are calculated from at least three independent experiments. […]” for “model.”
as §8

Rhodococcus HPPD2 = experiment: HPPD activity assay, Rhodococcus HPPD2; format: biochemical; conditions: normalized on Arabidopsis wild-type HPPD
Protocol: as §1, §2, §9, §4
The assay mixture can contain 150 mM potassium phosphate buffer pH 7.0, 50 mM L-ascorbic acid, 100 μM Catalase (Sigma-Aldrich), 1 μM FeSO4 and 0.2 units of purified HPPD enzyme in a total volume of 505 μl. […]
Inhibitors are dissolved in DMSO (dimethylsulfoxide) to a concentration of 0.5 mM. […] IC50 values are calculated using non-linear regression.
as §7, with “model. […] Weighted means (by standard error) of Km and […] values are calculated from at least three independent experiments. […]” for “model.”

[1] = biological target: T2, Hordeum HPPD variant G407C (Hordeum vulgare, UniProt O48604, A164G/G407C/R146V/R147D/R148G); experiment: HPPD activity assay, Hordeum HPPD mutant G407C; format: biochemical; conditions: normalized on Hordeum wild-type HPPD
T2 construct: His (N); made in house; host or cells: E. coli BL21 (DE3)
Protocol: as §1, §2, §3, §4, §5, §6
(§11) Purified, mutant HPPD enzymes are obtained by the methods described above. Dose response and kinetic measurements are carried out using the described HPPD activity assay. Apparent michaelis constants (Km) and maximal reaction velocities (Vmax) are calculated by non-linear regression with the software GraphPad Prism 5 (GraphPad Software, La Jolla, USA) using a substrate inhibition model.
as §8, with “of the optimized HPPD enzyme,” for “of the HPPD enzyme,”, “herbicide tolerance trait may depend” for “herbicide tolerance trait, may depend”
(§12) Easy comparison and ranking of each trait is enabled by normalizing tolerance indexes on Arabidopsis or Hordeum wild-type HPPD.

[2] = biological target: T3, Hordeum HPPD variant L334E (Hordeum vulgare, UniProt O48604, A164G/L334E/R146V/R147D/R148G); experiment: HPPD activity assay, Hordeum HPPD mutant L334E; format: biochemical; conditions: normalized on Hordeum wild-type HPPD
T3 construct: His (N); made in house; host or cells: E. coli BL21 (DE3)
Protocol: as §1, §2, §3, §4, §5, §6, §11
as §8, with “of the optimized HPPD enzyme,” for “of the HPPD enzyme,”, “herbicide tolerance trait may depend” for “herbicide tolerance trait, may depend”
as §12

[3] = biological target: T4, Hordeum HPPD variant L353M, P321R, L320N (Hordeum vulgare, UniProt O48604, L320N/L353M/P321R); experiment: HPPD activity assay, Hordeum HPPD mutant L353M, P321R, L320N; format: biochemical; conditions: normalized on Hordeum wild-type HPPD
T4 construct: His (N); made in house; host or cells: E. coli BL21 (DE3)
Protocol: as §1, §2, §3, §4, §5, §6, §11
as §8, with “of the optimized HPPD enzyme,” for “of the HPPD enzyme,”, “herbicide tolerance trait may depend” for “herbicide tolerance trait, may depend”
as §12

[4] = biological target: T5, Hordeum HPPD variant L353M, P321R, V212I, L334E (Hordeum vulgare, UniProt O48604, L334E/L353M/P321R/V212I); experiment: HPPD activity assay, Hordeum HPPD mutant L353M, P321R, V212I, L334E; format: biochemical; conditions: normalized on Hordeum wild-type HPPD
T5 construct: His (N); made in house; host or cells: E. coli BL21 (DE3)
Protocol: as §1, §2, §3, §4, §5, §6, §11
as §8, with “of the optimized HPPD enzyme,” for “of the HPPD enzyme,”, “herbicide tolerance trait may depend” for “herbicide tolerance trait, may depend”
as §12

[5] = biological target: T6, Hordeum HPPD variant L320Q (Hordeum vulgare, UniProt O48604, A164G/L320Q/R146V/R147D/R148G); experiment: HPPD activity assay, Hordeum HPPD mutant L320Q; format: biochemical; conditions: normalized on Hordeum wild-type HPPD
T6 construct: His (N); made in house; host or cells: E. coli BL21 (DE3)
Protocol: as §1, §2, §3, §4, §5, §6, §11
as §8, with “of the optimized HPPD enzyme,” for “of the HPPD enzyme,”, “herbicide tolerance trait may depend” for “herbicide tolerance trait, may depend”
as §12

[6] = Hordeum HPPD Wildtype, normalized on Hordeum wild-type HPPD
[7] = Hordeum HPPD, normalized on Arabidopsis wild-type HPPD

T4 sequence (O48604 whole entry R146V/R147D/R148G/A164G/L320N/P321R/L353M): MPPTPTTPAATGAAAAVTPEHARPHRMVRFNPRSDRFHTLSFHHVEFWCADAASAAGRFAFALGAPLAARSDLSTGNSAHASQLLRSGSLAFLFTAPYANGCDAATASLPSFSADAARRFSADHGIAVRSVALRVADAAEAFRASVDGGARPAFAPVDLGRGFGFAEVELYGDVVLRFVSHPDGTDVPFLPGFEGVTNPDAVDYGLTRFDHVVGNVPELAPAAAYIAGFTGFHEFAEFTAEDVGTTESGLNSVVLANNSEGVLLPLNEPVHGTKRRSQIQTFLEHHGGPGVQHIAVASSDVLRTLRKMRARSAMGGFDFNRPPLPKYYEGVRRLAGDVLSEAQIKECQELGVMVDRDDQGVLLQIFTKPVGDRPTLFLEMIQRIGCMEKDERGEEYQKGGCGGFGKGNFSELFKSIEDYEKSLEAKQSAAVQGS
T5 sequence (O48604 whole entry R146V/R147D/R148G/A164G/V212I/P321R/L334E/L353M): as the sequence (O48604 whole entry R146V/R147D/R148G/A164G/L320N/P321R/L353M) above, with V212I, N320L, L334E counted along it
T2 sequence (O48604 whole entry R146V/R147D/R148G/A164G/G407C): as the sequence (O48604 whole entry R146V/R147D/R148G/A164G/L320N/P321R/L353M) above, with N320L, R321P, M353L, G407C counted along it
T6 sequence (O48604 whole entry R146V/R147D/R148G/A164G/L320Q): as the sequence (O48604 whole entry R146V/R147D/R148G/A164G/L320N/P321R/L353M) above, with N320Q, R321P, M353L counted along it
T1 sequence (O48604 whole entry R146V/R147D/R148G/A164G): as the sequence (O48604 whole entry R146V/R147D/R148G/A164G/L320N/P321R/L353M) above, with N320L, R321P, M353L counted along it
T3 sequence (O48604 whole entry R146V/R147D/R148G/A164G/L334E): as the sequence (O48604 whole entry R146V/R147D/R148G/A164G/L320N/P321R/L353M) above, with N320L, R321P, L334E, M353L counted along it

Structure (SMILES) | Ki (Hordeum HPPD (SEQ ID: 2)) [nM] | Normalized tolerance index TI (Hordeum HPPD (SEQ ID: 2); [6]) | Normalized tolerance index TI (Hordeum HPPD (SEQ ID: 2); [7]) | tolerance index TI (Hordeum HPPD (SEQ ID: 2); Hordeum HPPD) | Normalized tolerance index TI (Avena HPPD) | Normalized tolerance index TI (Lolium HPPD) | Normalized tolerance index TI (Rhodococcus HPPD2) | Normalized tolerance index TI [1] | Normalized tolerance index TI [2] | Normalized tolerance index TI [3] | Normalized tolerance index TI [4] | Normalized tolerance index TI [5]
CC1=NOC(c2c(Cl)ccc(C3=C(O)c4ncccc4C(C)(C)S3(=O)=O)c2Cl)C1 (stereo not shown) [Inhibitor 1, 7-[2,4-dichloro-3-(3-methyl-4,5-dihydroisoxazol-5-yl)phenyl]-5,5-dimethyl-6,6-dioxo-thiopyrano[4,3-b]pyridin-8-ol] | 6.6 | 1 | 0.7 | 2.9E−3 | 4.7 | 4.2 | 73 | 2.7 | 1.5 | 2.1 | 2.2 | 2.1
CC1(C)c2cccnc2C(O)=C(c2ccc(Cl)nc2Cl)S1(=O)=O [Inhibitor 2, 7-(2,6-dichloro-3-pyridyl)-5,5-dimethyl-6,6-dioxo-thiopyrano[4,3-b]pyridin-8-ol] | 4.9 | 1 | 0.5 | 2.2E−3 | 2.8 | 1.8 | 11.4 | 2 | 1.4 | 1.4 | 1.9 | 0.7
COCCOCc1c(Cl)ccc(C2=C(O)c3ncccc3C(C)(C)S2(=O)=O)c1Cl [Inhibitor 3, 7-[2,4-dichloro-3-(2-methoxyethoxymethyl)phenyl]-5,5-dimethyl-6,6-dioxo-thiopyrano[4,3-b]pyridin-8-ol] |  | 1 | 0 |  | 0.1 | 0.3 | 2.1 | 2.4 | 1.5 | 1.9 | 2.1 | 2.4
